From US6413935B1, “Induction of immune response against desired determinants” (priority 1993, dated 2002)
Where two headings read alike, the source gives them in different places. Non-standard residues stand in square brackets, D forms with d. Residues, ends and D or L forms follow the SMILES beside them. No end group written: not given here. Cha = N[C@@H](CC1CCCCC1)C(=O)O

Columns and labels:
DR1 = DR1 (Homo sapiens, UniProt P01903+P01911, A100R/D57E/F55L/F60I/F76Y/I96L/L162R/M171V/P40L/Q125E/R42F/V115G/Y59C); settings: relative to parent 760.57
DR4w4 [1] = target: T1, DR4w4 (Homo sapiens, UniProt P01903+P01911, A100K/A169T/F76Y/I96L/K127E/L162R/M171V/N62H/P40V/Q125Y/R42H/S133A/S149N/S66Y/V115G/V209L/W38E); settings: relative to parent 760.57
DR7 = settings: for Loss of DR7 binding reactivity: relative to parent 760.57
DRw53 [2] = target: T2, DRw53 (Homo sapiens, UniProt P01903+P13762)
DR3 [3] = target: T3, DR3 (Homo sapiens, UniProt P01903+P01911, A100K/A102G/A103R/A169T/F55Y/I96L/K41T/L162R/M171V/P40S/Q125H/Q178H/Q39Y/R42S/S66N/T106N/T262R/W38E/Y61H)
human PBMC T cell lines = format: cell-based
DR3 [4] = target: T3, DR3; assay: biochemical
DR4w4 [5] = target: T1, DR4w4; assay: biochemical; settings: PADRE Class II Binding Affinities DR4w4
DRw53 [6] = target: T2, DRw53; assay: biochemical
DR2w2a [7] = target: T4, DR2w2a (Homo sapiens, UniProt P01903+Q30154); assay: biochemical
DR2w2a [8] = target: T4, DR2w2a; settings: read-out: Binding capacity DR2w2a, IC50
IE^k = format: binding, mouse; settings: read-out: Capacity to bind purified IE^k, IC50
C57BL/6J (H-2^b+) mice = settings: mouse, in vivo
[9] = read-out: PADRE Class II Binding Affinities DR5, Table VIII A
[10] = read-out: PADRE Class II Binding Affinities DR7, Table VIII A
[11] = read-out: PADRE Class II Binding Affinities, Table VIII A
[12] = read-out: Binding capacity DR5, IC50

T4 sequence (P01903 26-254): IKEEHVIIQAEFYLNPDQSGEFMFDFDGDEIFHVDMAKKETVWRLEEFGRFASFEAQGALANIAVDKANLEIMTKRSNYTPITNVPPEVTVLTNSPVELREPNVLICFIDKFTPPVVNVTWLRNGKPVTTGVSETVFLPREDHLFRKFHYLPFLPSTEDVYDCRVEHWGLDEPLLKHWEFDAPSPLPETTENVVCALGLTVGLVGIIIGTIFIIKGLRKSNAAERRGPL
T4 sequence (Q30154 30-266): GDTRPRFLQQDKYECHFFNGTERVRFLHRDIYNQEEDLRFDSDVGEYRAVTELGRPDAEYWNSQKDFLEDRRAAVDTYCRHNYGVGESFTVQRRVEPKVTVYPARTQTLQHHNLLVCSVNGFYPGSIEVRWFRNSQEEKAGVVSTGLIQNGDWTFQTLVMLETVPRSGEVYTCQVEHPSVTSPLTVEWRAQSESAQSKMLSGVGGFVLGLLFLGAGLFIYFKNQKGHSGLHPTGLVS
T2 sequence (P01903 26-254): as the sequence (P01903 26-254) above
T2 sequence (P13762 30-266): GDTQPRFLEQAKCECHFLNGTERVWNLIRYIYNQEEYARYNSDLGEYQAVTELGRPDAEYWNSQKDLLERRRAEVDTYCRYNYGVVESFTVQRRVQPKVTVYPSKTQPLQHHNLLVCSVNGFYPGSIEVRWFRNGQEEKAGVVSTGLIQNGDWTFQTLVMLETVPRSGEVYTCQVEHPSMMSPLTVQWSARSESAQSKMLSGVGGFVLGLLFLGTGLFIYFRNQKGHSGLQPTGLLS

Compound: C[C@H](NC(=O)[C@H](C)NC(=O)[C@H](C)NC(=O)[C@H](CC1CCCCC1)NC(=O)[C@H](C)NC(=O)[C@@H](C)N)C(=O)N[C@@H](C)C(=O)N[C@H](C(=O)N[C@@H](CCC(=O)O)C(=O)N[C@@H](CCCCN)C(=O)N[C@@H](C)C(=O)N[C@@H](C)C(=O)N[C@H](C)C(N)=O)[C@@H](C)O [Peptide 906.30] (H-[dA]A[Cha]AAAATEKAA[dA]-NH2; N-terminus and C-terminus assumed)
- Loss of DR1 binding reactivity (DR1): 8 fold
- Loss of DR4w4 binding reactivity (DR4w4 [1]): 7 fold
- IC50 (DR5; [9]): 51.5 nM
- Loss of DR5 binding reactivity (DR5; relative to parent 760.57): 10 fold
- IC50 (DR7; [10]): 758 nM
- Loss of DR7 binding reactivity (DR7): 10 fold
- IC50 (DQ3.1; [11]): 148 nM
- Increase in DQ3.1 binding reactivity (DQ3.1; relative to parent 760.57): no reactivity was gained

Compound: CC(C)C[C@H](NC(=O)[C@@H](NC(=O)[C@H](C)NC(=O)[C@H](CCC(=O)O)NC(=O)[C@H](C)NC(=O)[C@H](C)NC(=O)[C@H](CC1CCCCC1)NC(=O)[C@H](C)NC(=O)[C@@H](C)N)[C@@H](C)O)C(=O)N[C@@H](CCCCN)C(=O)N[C@@H](C)C(=O)N[C@@H](C)C(=O)N[C@H](C)C(N)=O [Peptide 906.19]
- IC50 (DR5; read-out: PADRE Class II Binding Affinities DR5): 6.5 nM
- PADRE Class II Binding Affinities DR7 (DR7): DR7 reactivity was lost
- IC50 (DR7; read-out: PADRE Class II Binding Affinities DR7): 250000 nM
- Increase in DR53 reactivity (DRw53 [2]): 20 fold

Compound: CC(C)C[C@H](NC(=O)[C@@H](NC(=O)[C@H](C)NC(=O)[C@H](C)NC(=O)[C@H](C)NC(=O)[C@H](C)NC(=O)[C@H](CC1CCCCC1)NC(=O)[C@H](C)NC(=O)[C@@H](C)N)[C@@H](C)O)C(=O)N[C@@H](CCCCN)C(=O)N[C@@H](C)C(=O)N[C@@H](Cc1ccccc1)C(=O)N[C@H](C)C(N)=O [Peptide 906.50] (H-[dA]A[Cha]AAAATLKAF[dA]-NH2; N-terminus and C-terminus assumed)
- Increase in DR3 reactivity (DR3 [3]; relative to parent 760.57): 8 fold
- IC50 (DR5; [9]): 9.5 nM
- IC50 (DR7; [10]): 73.5 nM
- Increase in DR53 reactivity (DRw53 [2]; relative to parent 760.57): 40 fold
- IC50 (DQ3.1; [11]): 20 nM

Compound: CC(C)C[C@H](NC(=O)[C@@H](NC(=O)[C@H](Cc1c[nH]cn1)NC(=O)[C@H](C)NC(=O)[C@H](C)NC(=O)[C@@H](NC(=O)[C@H](CC1CCCCC1)NC(=O)[C@H](CCCCN)NC(=O)[C@@H](C)N)C(C)C)[C@@H](C)O)C(=O)N[C@@H](CCCCN)C(=O)N[C@@H](C)C(=O)N[C@@H](C)C(=O)N[C@H](C)C(N)=O [Peptide 955.15]
- Donors with significant (>10,000 cpm) T cell response / donors tested, second stimulation (human PBMC T cell lines): 2/15
- Donors with significant (>10,000 cpm) T cell response / donors tested, third stimulation (human PBMC T cell lines): 4/5
- IC50 (DR3 [4]; PADRE Class II Binding Affinities DR3, Table IX): 2500 nM
- IC50 (DR4w4 [5]): 3.2 nM
- IC50 (DRw53 [6]): 50 nM
- IC50 (DR2w2a [7]; PADRE Class II Binding Affinities DR2w282, Table IX): 5.4 nM

Compound: YSGPLKAEIAQRLEDV [MT (Y)17-31, reference compound]
- IC50 (DR5; [12]): > 10000 nM
- IC50 (DR7; read-out: Binding capacity DR7, IC50): 208 nM
- IC50 (DR2w2a [8]): 350 nM

Compound: CC(C)C[C@H](NC(=O)[C@@H](NC(=O)[C@H](C)NC(=O)[C@H](CCC(N)=O)NC(=O)[C@H](C)NC(=O)[C@H](C)NC(=O)[C@H](CC1CCCCC1)NC(=O)[C@H](C)NC(=O)[C@@H](C)N)[C@@H](C)O)C(=O)N[C@@H](CCCCN)C(=O)N[C@@H](C)C(=O)N[C@@H](C)C(=O)N[C@H](C)C(N)=O [Peptide 906.20] (H-[dA]A[Cha]AAQATLKAA[dA]-NH2; N-terminus and C-terminus assumed)
- PADRE Class II Binding Affinities DR3 (DR3 [3]; Table VIII A): loss of DR3 binding
- IC50 (DR5; [9]): 4.1 nM
- IC50 (DR7; [10]): 2500 nM
- Loss of DR7 binding reactivity (DR7): 30 fold
- IC50 (DQ3.1; [11]): 652 nM

Compound: CC(C)C[C@H](NC(=O)[C@@H](NC(=O)[C@H](Cc1c[nH]c2ccccc12)NC(=O)[C@H](C)NC(=O)[C@H](C)NC(=O)[C@@H](NC(=O)[C@H](CC1CCCCC1)NC(=O)[C@H](CCCCN)NC(=O)[C@H](C)N)C(C)C)[C@@H](C)O)C(=O)N[C@@H](CCCCN)C(=O)N[C@@H](C)C(=O)N[C@@H](C)C(=O)N[C@@H](C)C(N)=O [Peptide 965.17]
- Donors with significant (>10,000 cpm) T cell response / donors tested, second stimulation (human PBMC T cell lines): 2/5
- Donors with significant (>10,000 cpm) T cell response / donors tested, third stimulation (human PBMC T cell lines): 4/5
- IC50 (DR3 [4]; PADRE Class II Binding Affinities DR3): 3210 nM
- IC50 (DRw53 [6]): 107 nM
- IC50 (DR2w2a [7]; PADRE Class II Binding Affinities DR2w282): 5.8 nM

Compound: CC(C)C[C@H](NC(=O)[C@@H](NC(=O)[C@H](Cc1c[nH]c2ccccc12)NC(=O)[C@H](C)NC(=O)[C@H](C)NC(=O)[C@@H](NC(=O)[C@H](CC1CCCCC1)NC(=O)[C@H](CCCCN)NC(=O)[C@@H](C)N)C(C)C)[C@@H](C)O)C(=O)N[C@@H](CCCCN)C(=O)N[C@@H](C)C(=O)N[C@@H](C)C(=O)N[C@H](C)C(N)=O [Peptide 965.10]
- IC50 (IE^k; Table III): 326 nM
- Donors with significant (>10,000 cpm) T cell response / donors tested, second stimulation (human PBMC T cell lines): 9/12 and all 5 individuals
- Donors with significant (>10,000 cpm) T cell response / donors tested, third stimulation (human PBMC T cell lines): 11 of 12 and all 5 individuals
- Effective immunizing dose (C57BL/6J (H-2^b+) mice): 0.05 μg/mouse

Compound: aKFVAAWTLKAAa [Peptide 1024.03]
- IC50 (IE^k): 3500 nM
- Effective immunizing dose (C57BL/6J (H-2^b+) mice): 0.05 μg/mouse
- IC50 (DR5; [12]): 18 nM
- IC50 (DQ3.1; read-out: Capacity to bind purified DQ3.1, IC50): 23 nM
